# Columns and labels:
# Type in all cases: cell-based
# [1] = system: glucocorticoid receptor; assay: cDNA microarray, TGFβ1-induced down-regulation of glucocorticoid receptor in normal rat kidney cells (NRK); details: 5 ng/ml huTGF-b1, 24 hours
# Protocol: Normal rat kidney cells (NRK) were cultured in DMEM-21 (high glucose)/10% FCS at 37° C., 5% CO2. Cells were serum starved for 24 hr before treated with 5 ng/ml huTGF-b1 (R&D System) or co-treatment with 1 μM Compound No. 81 or 0.1 μM Compound No. 74 for 24 hours.
# Gene expression profiles were determined from cDNA microarrays containing approximately 9000 elements derived from clones isolated from normalized cDNA libraries or purchased from ResGen (Invitrogen Life Technologies, Carlsbad, Calif.). DNA for spotting was generated by PCR amplification using 5′amino-modified primers (BD Biosciences Clontech, Palo Alto, Calif.) derived from flanking vector sequences. […]
# (§1) Total RNA was extracted from cells using Qiagen's RNeasy kit. […] Hybridization of each fluorophore was quantified using an Axon GenePix 4000A scanner.
# (§2) Differential expression values were expressed as the ratio of the median of background-subtracted fluorescent intensity of the experimental RNA to the median of background-subtracted fluorescent intensity of the control RNA. For ratios greater than or equal to 1.0, the ratio was expressed as a positive value. For ratios less than 1.0, the ratio was expressed as the negative reciprocal (i.e., a ratio of 0.5=−2.0). […] Differential expression ratios were determined as the mean of the two values from dye-swapped duplicates. […]
# [2] = system: glucocorticoid receptor; assay: cDNA microarray, TGFβ1-induced down-regulation of glucocorticoid receptor in rat lung fibroblasts (RLF); details: 15 ng/ml TGFβ1, 24 hours
# Protocol: Rat lung fibroblasts (RLF) were isolated from perfused rat lung by physical and enzymatic dissociation of lung tissue. […] RLFs were cultured in FGM-2 with 2% FBS (Clonetics # CC-3132). Cells were serum starved for 24 hours, followed by the treatment with 15 ng/ml TGFβ1 (R&D System) or co-treatment with 1 μM Compound No. 81 or 0.1 μM Compound No. 74 for 24 hours.
# (§3) Gene expression profiles were determined from cDNA microarrays containing approximately 9000 elements derived from clones isolated from normalized cDNA libraries or purchased from ResGen (Invitrogen Life Technologies, Carlsbad, Calif.). […]
# as §1, §2
# [3] = system: steroid/thyroid receptors; assay: cDNA microarray, TGFβ1-induced down-regulation of steroid/thyroid receptors in human lung fibroblasts; details: 5 ng/ml TGFβ1
# Protocol: Human lung fibroblasts (Cambrex Bio Science) from a person were seeded at 4×10^5 cells (passage 4) in 100 mm dishes and cultured in complete FGM medium (Cambrex Bio Science). The next day, medium was changed to FGM without serum or fibroblast growth factor, but supplemented with 0.2% bovine serum albumin and 50 μg/m; Vitamin C. Cells were serum deprived for 24 hours prior to treating with 5 ng/ml TGFβ1 (R&D Systems) in the presence or absence of 400 nM Compound No. 79. Induction with TGFβ was carried out for various times (7.5 hours, 24 hours, and 3 days) after which RNA was harvested by lysing the cells in RLT buffer (Qiagen) and frozen at −80° C.
# as §3, §1
# Differential expression values were expressed as the ratio of the median of background-subtracted fluorescent intensity of the experimental RNA to the median of background-subtracted fluorescent intensity of the control RNA. For ratios greater than or equal to 1.0, the ratio was expressed as a positive value. […]
substance,measurement,setting,value
"TGF-β1: huTGF-b1 (R&D System), transforming growth factor-beta 1, used to induce receptor down-regulation",down-regulation of glucocorticoid receptor expression at the transcriptional level,[1],2 fold
same,down-regulation of glucocorticoid receptor expression at the transcriptional level,[2],2 fold
same,"expression of seven members of the steroid nuclear receptor family, including glucocorticoid receptor and retinoid receptor C alpha",[3],down-regulates

# Source: patent US20040138188A1, “Use of TGF-beta inhibitors to counteract pathologic changes in the level or function of steroid/thyroid receptors” (priority 2002, published 2004)
